From publication PMC6704710, “Preclinical evaluation of 3D185, a novel potent inhibitor of FGFR1/2/3 and CSF-1R, in FGFR-dependent and macrophage-dominant cancer models” (Journal of Experimental & Clinical Cancer Research : CR, 2019)

How the values were obtained:
Type in all cases: biochemical
[1] = target: T1, JNK1α1(h) (Homo sapiens, UniProt P45983); assay: Eurofins kinase panel; settings: read-out: Inhibition rate (%)
T1 construct: purchased Eurofins (KinaseProfiler)

[2] = target: T2, FGFR3 (Homo sapiens, UniProt P22607); assay: Kinase inhibition assay (ELISA); settings: mean ± SD
T2 construct: purchased Eurofins (Fremont, United States)

[3] = target: T3, PRAK(h) (Homo sapiens, UniProt Q8IW41); assay: Eurofins kinase panel; settings: read-out: Inhibition rate (%)
T3 construct: purchased Eurofins (KinaseProfiler)
T3 sequence (Q8IW41 1-473): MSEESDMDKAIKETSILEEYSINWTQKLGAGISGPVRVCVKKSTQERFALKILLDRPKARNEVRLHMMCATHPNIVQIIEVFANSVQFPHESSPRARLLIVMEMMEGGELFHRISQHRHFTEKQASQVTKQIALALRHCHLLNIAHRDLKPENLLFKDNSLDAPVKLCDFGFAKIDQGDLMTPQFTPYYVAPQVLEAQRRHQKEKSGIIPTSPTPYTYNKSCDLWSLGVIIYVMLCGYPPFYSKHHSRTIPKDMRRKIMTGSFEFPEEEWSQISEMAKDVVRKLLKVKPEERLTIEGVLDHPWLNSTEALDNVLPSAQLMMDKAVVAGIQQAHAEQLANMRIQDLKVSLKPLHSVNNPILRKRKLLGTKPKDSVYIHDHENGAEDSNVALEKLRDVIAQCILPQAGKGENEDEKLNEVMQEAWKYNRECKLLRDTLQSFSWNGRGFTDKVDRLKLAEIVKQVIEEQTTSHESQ

[4] = target: T4, SNRK(h) (Homo sapiens, UniProt Q9NRH2); assay: Eurofins kinase panel; settings: read-out: Inhibition rate (%)
T4 construct: purchased Eurofins (KinaseProfiler)
T4 sequence (Q9NRH2 1-765): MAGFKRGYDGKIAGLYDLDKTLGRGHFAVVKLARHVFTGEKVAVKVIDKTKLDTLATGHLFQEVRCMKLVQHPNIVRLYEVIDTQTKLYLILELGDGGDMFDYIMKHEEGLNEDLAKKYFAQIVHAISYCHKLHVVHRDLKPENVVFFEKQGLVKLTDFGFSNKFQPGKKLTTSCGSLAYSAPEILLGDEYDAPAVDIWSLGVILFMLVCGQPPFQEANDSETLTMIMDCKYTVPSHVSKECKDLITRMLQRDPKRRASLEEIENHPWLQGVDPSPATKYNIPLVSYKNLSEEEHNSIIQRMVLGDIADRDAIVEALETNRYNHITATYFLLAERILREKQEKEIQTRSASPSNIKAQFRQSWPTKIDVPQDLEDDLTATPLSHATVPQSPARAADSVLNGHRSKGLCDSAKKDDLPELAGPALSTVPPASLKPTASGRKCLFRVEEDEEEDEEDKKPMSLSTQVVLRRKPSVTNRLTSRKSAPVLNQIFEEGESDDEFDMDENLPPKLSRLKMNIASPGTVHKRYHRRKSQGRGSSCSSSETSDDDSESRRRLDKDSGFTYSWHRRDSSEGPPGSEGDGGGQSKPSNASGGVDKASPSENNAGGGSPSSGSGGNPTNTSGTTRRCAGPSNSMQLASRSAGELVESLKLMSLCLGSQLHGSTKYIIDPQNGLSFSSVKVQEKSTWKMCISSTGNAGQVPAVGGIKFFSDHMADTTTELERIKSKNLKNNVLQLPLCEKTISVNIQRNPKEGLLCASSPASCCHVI

[5] = target: T5, IKKε(h) (Homo sapiens, UniProt Q14164); assay: Eurofins kinase panel; settings: read-out: Inhibition rate (%)
T5 construct: purchased Eurofins (KinaseProfiler)
T5 sequence (Q14164 1-716): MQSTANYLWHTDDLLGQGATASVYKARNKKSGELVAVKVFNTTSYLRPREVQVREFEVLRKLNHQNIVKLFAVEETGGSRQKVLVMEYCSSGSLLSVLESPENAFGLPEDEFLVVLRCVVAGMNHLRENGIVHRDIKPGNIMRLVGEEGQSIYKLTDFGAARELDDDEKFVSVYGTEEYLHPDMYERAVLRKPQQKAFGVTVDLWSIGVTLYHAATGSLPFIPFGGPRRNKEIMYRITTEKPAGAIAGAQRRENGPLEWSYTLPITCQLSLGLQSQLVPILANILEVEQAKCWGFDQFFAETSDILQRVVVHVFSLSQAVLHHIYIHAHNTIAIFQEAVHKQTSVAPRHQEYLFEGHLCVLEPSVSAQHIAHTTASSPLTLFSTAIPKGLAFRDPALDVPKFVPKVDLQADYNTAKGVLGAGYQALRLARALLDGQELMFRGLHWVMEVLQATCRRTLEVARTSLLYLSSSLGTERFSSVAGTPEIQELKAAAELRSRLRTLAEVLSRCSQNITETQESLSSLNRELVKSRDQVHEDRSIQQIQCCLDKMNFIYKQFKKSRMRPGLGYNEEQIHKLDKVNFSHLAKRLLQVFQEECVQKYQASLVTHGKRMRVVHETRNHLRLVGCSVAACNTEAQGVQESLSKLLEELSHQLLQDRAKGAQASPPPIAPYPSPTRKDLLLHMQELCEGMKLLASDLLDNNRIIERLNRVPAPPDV

[6] = target: T6, Tie2 (h) (Homo sapiens, UniProt Q02763); assay: Eurofins kinase panel; settings: read-out: Inhibition rate (%)
T6 construct: purchased Eurofins (KinaseProfiler)

[7] = target: T7, CLK3(h) (Homo sapiens, UniProt P49761); assay: Eurofins kinase panel; settings: read-out: Inhibition rate (%)
T7 construct: purchased Eurofins (KinaseProfiler)

[8] = target: FGFR2(N549H)(h) (Homo sapiens, UniProt P21802, N549H); assay: Eurofins kinase panel
FGFR2(N549H)(h), sequence (P21802 22-821 N549H): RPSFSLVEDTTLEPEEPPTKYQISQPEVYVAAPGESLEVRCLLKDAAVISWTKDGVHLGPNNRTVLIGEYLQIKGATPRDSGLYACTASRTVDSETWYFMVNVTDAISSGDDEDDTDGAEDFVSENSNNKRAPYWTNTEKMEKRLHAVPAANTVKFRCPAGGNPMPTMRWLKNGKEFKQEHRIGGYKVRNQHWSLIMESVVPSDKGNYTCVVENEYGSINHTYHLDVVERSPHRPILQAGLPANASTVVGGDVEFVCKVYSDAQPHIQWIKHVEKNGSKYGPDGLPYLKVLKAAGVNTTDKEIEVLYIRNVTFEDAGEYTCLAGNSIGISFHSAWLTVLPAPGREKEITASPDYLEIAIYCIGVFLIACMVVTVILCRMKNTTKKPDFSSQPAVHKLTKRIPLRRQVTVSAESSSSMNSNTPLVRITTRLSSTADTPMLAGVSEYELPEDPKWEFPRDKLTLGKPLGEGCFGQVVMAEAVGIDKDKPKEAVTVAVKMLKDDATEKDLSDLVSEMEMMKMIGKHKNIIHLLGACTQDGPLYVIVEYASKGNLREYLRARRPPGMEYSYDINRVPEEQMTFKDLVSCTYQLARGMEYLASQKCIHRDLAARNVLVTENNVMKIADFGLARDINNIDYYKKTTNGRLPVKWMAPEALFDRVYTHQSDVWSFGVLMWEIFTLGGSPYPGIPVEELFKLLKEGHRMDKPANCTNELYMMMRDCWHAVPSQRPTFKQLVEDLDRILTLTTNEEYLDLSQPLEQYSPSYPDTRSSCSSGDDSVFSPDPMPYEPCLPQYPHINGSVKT

T1 sequence (P45983 1-384 isoform P45983-2): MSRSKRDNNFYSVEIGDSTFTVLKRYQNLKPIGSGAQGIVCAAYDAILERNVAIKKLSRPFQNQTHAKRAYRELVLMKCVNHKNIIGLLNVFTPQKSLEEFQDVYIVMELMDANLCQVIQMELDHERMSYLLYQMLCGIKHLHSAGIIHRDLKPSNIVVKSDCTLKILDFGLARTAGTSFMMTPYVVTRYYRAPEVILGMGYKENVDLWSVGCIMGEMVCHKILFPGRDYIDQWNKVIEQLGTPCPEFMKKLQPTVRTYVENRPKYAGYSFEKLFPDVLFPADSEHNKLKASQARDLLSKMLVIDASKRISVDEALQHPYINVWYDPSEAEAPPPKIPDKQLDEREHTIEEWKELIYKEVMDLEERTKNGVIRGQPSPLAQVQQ
T6 sequence (Q02763 23-1124): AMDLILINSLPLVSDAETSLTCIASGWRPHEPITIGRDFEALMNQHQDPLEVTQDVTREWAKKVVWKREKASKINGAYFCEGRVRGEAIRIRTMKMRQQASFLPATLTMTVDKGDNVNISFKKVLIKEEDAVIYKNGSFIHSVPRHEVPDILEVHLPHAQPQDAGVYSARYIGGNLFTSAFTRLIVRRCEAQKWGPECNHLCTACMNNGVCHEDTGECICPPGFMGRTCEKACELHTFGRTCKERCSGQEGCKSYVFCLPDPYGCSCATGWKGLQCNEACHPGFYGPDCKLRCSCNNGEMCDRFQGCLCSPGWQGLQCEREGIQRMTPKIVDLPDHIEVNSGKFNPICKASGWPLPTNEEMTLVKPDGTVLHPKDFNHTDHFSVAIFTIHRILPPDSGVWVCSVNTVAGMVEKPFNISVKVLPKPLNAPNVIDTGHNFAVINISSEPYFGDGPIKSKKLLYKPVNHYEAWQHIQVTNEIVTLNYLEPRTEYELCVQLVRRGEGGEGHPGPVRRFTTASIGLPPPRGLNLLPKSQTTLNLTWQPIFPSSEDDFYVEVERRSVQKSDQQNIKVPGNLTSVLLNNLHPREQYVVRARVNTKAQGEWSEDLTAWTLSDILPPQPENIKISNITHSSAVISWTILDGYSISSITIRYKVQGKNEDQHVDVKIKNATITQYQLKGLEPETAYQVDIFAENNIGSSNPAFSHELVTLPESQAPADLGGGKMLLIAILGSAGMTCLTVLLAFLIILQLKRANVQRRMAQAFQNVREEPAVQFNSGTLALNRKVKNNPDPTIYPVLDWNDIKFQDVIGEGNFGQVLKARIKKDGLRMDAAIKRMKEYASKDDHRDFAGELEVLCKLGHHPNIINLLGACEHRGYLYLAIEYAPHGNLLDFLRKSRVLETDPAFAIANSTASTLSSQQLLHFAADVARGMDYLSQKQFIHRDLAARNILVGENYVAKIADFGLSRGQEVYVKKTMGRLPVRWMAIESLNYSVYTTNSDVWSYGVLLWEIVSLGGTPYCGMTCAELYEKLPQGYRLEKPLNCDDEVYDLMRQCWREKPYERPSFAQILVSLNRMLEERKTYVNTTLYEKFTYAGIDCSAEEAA
T7 sequence (P49761 whole entry): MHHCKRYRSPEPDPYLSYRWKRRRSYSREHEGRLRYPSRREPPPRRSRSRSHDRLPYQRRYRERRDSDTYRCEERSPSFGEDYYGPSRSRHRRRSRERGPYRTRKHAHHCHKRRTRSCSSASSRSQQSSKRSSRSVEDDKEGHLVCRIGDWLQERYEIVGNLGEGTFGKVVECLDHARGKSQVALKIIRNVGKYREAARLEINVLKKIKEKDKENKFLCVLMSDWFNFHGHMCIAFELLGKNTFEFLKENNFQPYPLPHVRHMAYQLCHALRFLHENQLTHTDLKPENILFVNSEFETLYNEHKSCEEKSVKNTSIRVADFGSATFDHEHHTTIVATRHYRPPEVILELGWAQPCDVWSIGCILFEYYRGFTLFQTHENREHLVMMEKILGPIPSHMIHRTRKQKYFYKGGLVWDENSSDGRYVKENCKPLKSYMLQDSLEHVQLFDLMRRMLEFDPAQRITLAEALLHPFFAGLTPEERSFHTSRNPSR
T2 sequence (P22607 23-806): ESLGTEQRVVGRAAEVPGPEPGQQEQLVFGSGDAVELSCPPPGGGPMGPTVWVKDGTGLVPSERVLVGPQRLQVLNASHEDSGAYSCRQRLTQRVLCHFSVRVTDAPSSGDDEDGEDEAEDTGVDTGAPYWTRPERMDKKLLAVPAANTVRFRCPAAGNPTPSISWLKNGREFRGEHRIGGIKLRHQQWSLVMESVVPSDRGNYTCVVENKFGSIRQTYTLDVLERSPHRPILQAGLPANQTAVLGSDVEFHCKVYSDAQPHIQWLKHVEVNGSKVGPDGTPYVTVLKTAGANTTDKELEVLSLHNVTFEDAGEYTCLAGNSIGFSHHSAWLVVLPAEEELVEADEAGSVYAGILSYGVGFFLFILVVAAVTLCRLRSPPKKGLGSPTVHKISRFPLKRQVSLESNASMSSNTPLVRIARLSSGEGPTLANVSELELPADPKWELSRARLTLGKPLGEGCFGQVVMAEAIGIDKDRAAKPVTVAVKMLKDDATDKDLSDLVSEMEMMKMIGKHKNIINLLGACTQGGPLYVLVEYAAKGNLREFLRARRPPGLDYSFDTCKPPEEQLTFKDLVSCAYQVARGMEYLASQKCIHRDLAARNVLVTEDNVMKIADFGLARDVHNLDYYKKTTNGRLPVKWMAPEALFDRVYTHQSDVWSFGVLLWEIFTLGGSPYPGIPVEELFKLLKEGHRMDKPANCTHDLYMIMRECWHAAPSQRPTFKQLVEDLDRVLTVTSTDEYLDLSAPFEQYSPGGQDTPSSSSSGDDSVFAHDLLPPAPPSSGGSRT

Work on `COc1cc(OC)c(Cl)c(-c2ccc3c(NC(=O)c4ccc(N5CCNC(C)(C)C5)cc4)n[nH]c3n2)c1Cl` [3D185] yielded an inhibition at 0.01 µM ([1]; 10 nM) of -3%, an inhibition at 0.1 µM ([1]; 100 nM) of -4% and an inhibition at 1 µM ([1]; 1000 nM) of 3%. The IC50 [2] was 3.6 nM, the inhibition at 0.01 µM ([3]; 10 nM) was -18% and the inhibition at 0.1 µM ([3]; 100 nM) was -24%. For the same molecule, the inhibition at 1 µM ([3]; 1000 nM) was -10%, the inhibition at 0.01 µM ([4]; 10 nM) was -8% and the inhibition at 0.1 µM ([4]; 100 nM) was -42%. For the same molecule, the inhibition at 1 µM ([4]; 1000 nM) was -44%, the inhibition at 0.01 µM ([5]; 10 nM) was -4% and the inhibition at 0.1 µM ([5]; 100 nM) was 2%. It also gave an inhibition at 1 µM ([5]; 1000 nM) of 5%, an inhibition at 0.01 µM ([6]; 10 nM) of 19% and an inhibition at 0.1 µM ([6]; 100 nM) of 64%. For the same molecule, the inhibition at 1 µM ([6]; 1000 nM) was 95%, the inhibition at 0.01 µM ([7]; 10 nM) was 2% and the inhibition at 0.1 µM ([7]; 100 nM) was 9%. It also gave an inhibition at 1 µM ([7]; 1000 nM) of 16%, an IC50 ([8]; estimated from 372-kinase panel) of under 10 nM and an inhibition at 0.01 µM ([8]; read-out: Inhibition rate (%)) of 96%. It also gave an inhibition at 0.1 µM ([8]; read-out: Inhibition rate (%)) of 98% and an inhibition at 1 µM ([8]; read-out: Inhibition rate (%)) of 100%.
